Experimental findings from patent publication US7951814B2, “Quinazolinedione derivatives as TRPA1 modulators” (Glenmark Pharmaceuticals, S.A., priority 2008, dated 2011) are described below.

For orientation: inhibition means the change of the read-out against control, counted positive when it falls. By IC50 is commonly meant the concentration that gives 50% inhibition.

The assay has as its target T1, Human TRPA1 expressing CHO cells (Homo sapiens, UniProt O75762).
T1 construct: expressed in transfected cells; host or cells: CHO cells (under G-418 selection)
Put plainly: 45Calcium uptake assay: inhibition of AITC induced cellular uptake of radioactive calcium. It is filed as cell-based. To be noted: AITC 30 μM, human TRPA1 CHO cells; for inhibition at 1 µM: 1.0 μM test compound, read-out: Percentage inhibition at 1.0 μM; for inhibition at 10 µM: 10.0 μM test compound, read-out: Percentage inhibition at 10.0 μM; for IC50: read-out: IC50 value (range). The procedure: The illustrative examples of the present invention are screened for TRPA1 activity according to a modified procedure described in (a) Tóth, A. et al. Life Sciences (2003), 73, 487-498. ([…]. et al. Proc. Natl. Acad. Sci. U.S.A., (2007), 104, 13525-13530. The screening of the compounds can be carried out by other methods and procedures known to persons skilled in the art. Screening for TRPA1 Antagonist Using the ^45Calcium Uptake Assay The inhibition of TRPA1 receptor activation was measured as inhibition of allyl isothiocyanate (AITC) induced cellular uptake of radioactive calcium. […] Final concentration of DMSO in the reaction was 0.5% (v/v). […] Cells were seeded 24 h prior to the assay in 96 well plates so as to get 50,000 cells per well on the day of experiment. Cells were treated with test compounds for 10 min followed by addition of AITC at a final concentration of 30 μM and 5 μCi/ml ^45Ca^+2 for 3 min. […] Radioactivity in the lysate was measured in Packard Top count after addition of liquid scintillant. Concentration response curves were plotted as a % of maximal response obtained in the absence of test antagonist. IC50 value was calculated from concentration response curve by nonlinear regression analysis using GraphPad PRISM software.

T1 sequence (O75762 whole entry): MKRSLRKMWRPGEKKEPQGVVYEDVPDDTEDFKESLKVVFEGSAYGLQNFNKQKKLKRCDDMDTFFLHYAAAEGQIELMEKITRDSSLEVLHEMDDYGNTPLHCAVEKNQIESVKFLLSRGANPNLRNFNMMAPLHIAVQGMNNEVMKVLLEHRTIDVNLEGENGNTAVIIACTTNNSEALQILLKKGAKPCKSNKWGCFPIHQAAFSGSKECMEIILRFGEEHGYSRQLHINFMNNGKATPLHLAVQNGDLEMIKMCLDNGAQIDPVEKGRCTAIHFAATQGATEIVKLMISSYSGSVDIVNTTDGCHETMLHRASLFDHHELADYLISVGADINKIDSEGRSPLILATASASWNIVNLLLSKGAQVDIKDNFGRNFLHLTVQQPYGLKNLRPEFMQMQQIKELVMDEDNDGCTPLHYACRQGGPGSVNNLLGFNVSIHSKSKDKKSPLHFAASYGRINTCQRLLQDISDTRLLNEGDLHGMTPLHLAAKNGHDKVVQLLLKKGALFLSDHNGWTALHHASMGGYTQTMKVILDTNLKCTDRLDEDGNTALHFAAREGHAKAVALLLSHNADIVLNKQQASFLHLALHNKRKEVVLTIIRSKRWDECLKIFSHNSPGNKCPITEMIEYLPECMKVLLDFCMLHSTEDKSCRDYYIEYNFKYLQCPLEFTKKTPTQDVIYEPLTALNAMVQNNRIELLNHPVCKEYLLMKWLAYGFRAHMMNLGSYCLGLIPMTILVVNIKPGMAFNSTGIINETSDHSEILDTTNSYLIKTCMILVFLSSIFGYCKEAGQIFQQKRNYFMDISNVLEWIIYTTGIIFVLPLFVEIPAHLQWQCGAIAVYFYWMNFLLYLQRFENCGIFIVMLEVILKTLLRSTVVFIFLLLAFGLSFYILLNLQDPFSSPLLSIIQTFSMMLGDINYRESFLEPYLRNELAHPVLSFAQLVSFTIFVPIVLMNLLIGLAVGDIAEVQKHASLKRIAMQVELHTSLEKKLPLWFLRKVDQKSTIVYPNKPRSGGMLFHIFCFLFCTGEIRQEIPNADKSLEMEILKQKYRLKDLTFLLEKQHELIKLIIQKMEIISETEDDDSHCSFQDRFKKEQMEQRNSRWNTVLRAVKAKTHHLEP

As to `Cn1c(=O)c2c(CC(=O)Nc3nc(-c4ccc(Cl)cc4Cl)cs3)cccc2n(C)c1=O` [Example 45, N1-[4-(2,4-Dichlorophenyl)-1,3-thiazol-2yl]-2-(1,3-dimethyl-2,4-dioxo-1,2,3,4-tetrahydro-5-quinazolinyl)acetamide], the inhibition at 1 µM was 82.1%, the inhibition at 10 µM was 95.5% and the 50% inhibitory concentration (IC50) is > 100 nM.

Turning to `Cn1c(=O)c2c(CC(=O)Nc3nc(-c4cc(Cl)ccc4Cl)cs3)cccc2n(C)c1=O` [Example 46, N1-[4-(2,5-Dichlorophenyl)-1,3-thiazol-2-yl]-2-(1,3-dimethyl-2,4-dioxo-1,2,3,4-tetrahydro-5-quinazolinyl)acetamide], the inhibition at 1 µM is 84.3%, the inhibition at 10 µM is 87.9% and the IC50 was > 100 nM.

Take `Cn1c(=O)c2c(CC(=O)Nc3nc(-c4ccc(Cl)c(Cl)c4)cs3)cccc2n(C)c1=O` [Example 47, N1-[4-(3,4-Dichlorophenyl)-1,3-thiazol-2yl]-2-(1,3-dimethyl-2,4-dioxo-1,2,3,4-tetrahydro-5-quinazolinyl)acetamide]: the inhibition at 1 µM worked out at 98.4%, the inhibition at 10 µM came to 99.2% and the IC50 lay in the range of 50.1 to 100 nM.

Regarding `Cn1c(=O)c2c(CC(=O)Nc3nc(-c4cc(Cl)cc(Cl)c4)cs3)cccc2n(C)c1=O` [Example 48, N1-[4-(3,5-Dichlorophenyl)-1,3-thiazol-2-yl]-2-(1,3-dimethyl-2,4-dioxo-1,2,3,4-tetrahydro-5-quinazolinyl)acetamide], the inhibition at 1 µM is 96.3%, the inhibition at 10 µM was 100% and the half-maximal inhibitory concentration (IC50) was in the range of 50.1 to 100 nM.

As for `Cn1c(=O)c2c(CC(=O)Nc3nc(-c4ccc(F)c(Cl)c4)cs3)cccc2n(C)c1=O` [Example 49, N1-[4-(3-Chloro-4-fluorophenyl)-1,3-thiazol-2-yl]-2-(1,3-dimethyl-2,4-dioxo-1,2,3,4-tetrahydro-5-quinazolinyl)acetamide], the inhibition at 1 µM turned out to be 98.6%, the inhibition at 10 µM came to 99% and the IC50 fell in the range of 50.1 to 100 nM.

`Cn1c(=O)c2c(CC(=O)Nc3nc(-c4cccc(Cl)c4F)cs3)cccc2n(C)c1=O` [Example 50, N1-[4-(3-Chloro-2-fluorophenyl)-1,3-thiazol-2-yl]-2-(1,3-dimethyl-2,4-dioxo-1,2,3,4-tetrahydro-5-quinazolinyl)acetamide]: the inhibition at 1 µM was found to be 95.3%, the inhibition at 10 µM worked out at 98.9% and the IC50 fell in the range of 50.1 to 100 nM.

Consider `Cn1c(=O)c2c(CC(=O)Nc3nc(-c4ccc(Cl)cc4F)cs3)cccc2n(C)c1=O` [Example 51, N1-[4-(4-Chloro-2-fluorophenyl)-1,3-thiazol-2-yl]-2-(1,3-dimethyl-2,4-dioxo-1,2,3,4-tetrahydro-5-quinazolinyl)acetamide], for which the inhibition at 1 µM was determined as 97.5%, the inhibition at 10 µM came to 99.3% and the concentration for half-maximal inhibition (IC50) is > 100 nM.

Take `Cn1c(=O)c2c(CC(=O)Nc3nc(-c4cc(Cl)ccc4F)cs3)cccc2n(C)c1=O` [Example 52, N1-[4-(5-Chloro-2-fluorophenyl)-1,3-thiazol-2-yl]-2-(1,3-dimethyl-2,4-dioxo-1,2,3,4-tetrahydro-5-quinazolinyl)acetamide]: the inhibition at 1 µM worked out at 92.5%, the inhibition at 10 µM came to 95.3% and the IC50 was > 100 nM.

On to `Cn1c(=O)c2c(CC(=O)Nc3nc(-c4c(F)cccc4Cl)cs3)cccc2n(C)c1=O` [Example 53, N1-[4-(2-Chloro-6-fluorophenyl)-1,3-thiazol-2-yl]-2-(1,3-dimethyl-2,4-dioxo-1,2,3,4-tetrahydro-5-quinazolinyl)acetamide], for which the inhibition at 1 µM came to 33.1% and the inhibition at 10 µM worked out at 88.6%.

As for `Cn1c(=O)c2c(CC(=O)Nc3nc(-c4ccc(F)cc4Cl)cs3)cccc2n(C)c1=O` [Example 54], the inhibition at 1 µM was determined as 74.1%, the inhibition at 10 µM stood at 99.8% and the IC50 is < 50 nM.

On to `Cn1c(=O)c2c(CC(=O)Nc3nc(-c4ccc(Cl)c(C(F)(F)F)c4)cs3)cccc2n(C)c1=O` [Example 55, N1-[4-(4-Chloro, 3-trifluoromethylphenyl)-1,3-thiazol-2-yl]-2-(1,3-dimethyl-2,4-dioxo-1,2,3,4-tetrahydro-5-quinazolinyl)acetamide], for which the inhibition at 1 µM worked out at 100%, the inhibition at 10 µM came out at 100% and the IC50 was < 50 nM.

Turning to `Cn1c(=O)c2c(CC(=O)Nc3nc(-c4cc(C(F)(F)F)ccc4Cl)cs3)cccc2n(C)c1=O` [Example 56, N1-[4-(2-Chloro-5-trifuoromethylphenyl)-1,3-thiazol-2-yl]-2-(1,3-dimethyl-2,4-dioxo-1,2,3,4-tetrahydro-5-quinazolinyl)propanamide], the inhibition at 1 µM is 85%, the inhibition at 10 µM is 99.8% and the half-maximal inhibitory concentration (IC50) is > 100 nM.

`Cn1c(=O)c2c(CC(=O)Nc3nc(-c4ccc(OC(F)F)c(Cl)c4)cs3)cccc2n(C)c1=O` [Example 57, N1-{4-[3-Chloro-4-(difluoromethoxy)phenyl]-1,3-thiazol-2-yl}-2-(1,3-dimethyl-2,4-dioxo-1,2,3,4-tetrahydro-5-quinazolinyl)acetamide]: the inhibition at 1 µM was found to be 97.8%, the inhibition at 10 µM was 99.7% and the half-inhibitory concentration (IC50) is < 50 nM.

Take `Cc1cc(-c2csc(NC(=O)Cc3cccc4c3c(=O)n(C)c(=O)n4C)n2)ccc1Cl` [Example 58, N1-[4-(4-Chloro-3-methylphenyl)-1,3-thiazol-2yl]-2-(1,3-dimethyl-2,4-dioxo-1,2,3,4-tetrahydro-5-quinazolinyl)acetamide]: the inhibition at 1 µM amounted to 94.2%, the inhibition at 10 µM is 96.7% and the IC50 is > 100 nM.

Turning to `Cn1c(=O)c2c(CC(=O)Nc3nc(-c4ccc(OCC(F)(F)F)c(F)c4)cs3)cccc2n(C)c1=O` [Example 59, N1-{4-[3-fluoro-4-(2,2,2-trifluoroethoxy)phenyl]-1,3-thiazol-2yl}-2-(1,3-dimethyl-2,4-dioxo-1,2,3,4-tetrahydro-5-quinazolinyl)acetamide], the inhibition at 1 µM was determined as 96.8%, the inhibition at 10 µM turned out to be 100% and the half-maximal inhibitory concentration (IC50) was < 50 nM.

For `Cn1c(=O)c2c(CC(=O)Nc3nc(-c4ccc(OCC5CC5)c(F)c4)cs3)cccc2n(C)c1=O` [Example 60, N1-[4-(4-Cyclopropylmethoxy-3-fluorophenyl)-1,3-thiazol-2yl]-2-(1,3-dimethyl-2,4-dioxo-1,2,3,4-tetrahydro-5-quinazolinyl)acetamide], the inhibition at 1 µM came out at 1.31% and the inhibition at 10 µM was found to be 41.3%.

In the case of `Cn1c(=O)n(CC2CC2)c(=O)c2c(CC(=O)Nc3nc(-c4ccc(C(F)(F)F)c(F)c4)cs3)cccc21` [Example 61, N1-[4-(3-Fluoro-4-trifluoromethylphenyl)-1,3-thiazol-2-yl]-2-(1-methyl-3-cyclopropyl-methyl-2,4-dioxo-1,2,3,4-tetrahydro-5-quinazolinyl)acetamide], the inhibition at 1 µM worked out at 25% and the inhibition at 10 µM was 60.4%.

As to `Cn1c(=O)c2c(CC(=O)Nc3nc(-c4c(F)ccc(F)c4F)cs3)cccc2n(C)c1=O` [Example 62], the inhibition at 1 µM turned out to be 59%, the inhibition at 10 µM is 94.2% and the IC50 is > 100 nM.

Consider `Cn1c(=O)c2c(CC(=O)Nc3nc(-c4cc(F)c(Cl)cc4Cl)cs3)cccc2n(C)c1=O` [Example 63, N1-[4-(2,4-Dichloro-5-fluorophenyl)-1,3-thiazol-2-yl]-2-(1,3-dimethyl-2,4-dioxo-1,2,3,4-tetrahydro-5-quinazolinyl)acetamide], for which the inhibition at 1 µM was found to be 87.1%, the inhibition at 10 µM was found to be 96.9% and the IC50 was > 100 nM.

On to `Cn1c(=O)c2c(CC(=O)Nc3nc(-c4c(Cl)ccc(F)c4Cl)cs3)cccc2n(C)c1=O` [Example 64, N1-[4-(2,6Dichloro-3-fluorophenyl)-1,3-thiazol-2-yl]-2-(1,3-dimethyl-2,4-dioxo-1,2,3,4-tetrahydro-5-quinazolinyl)acetamide], for which the inhibition at 1 µM was found to be 11.5% and the inhibition at 10 µM stood at 27%.

In the case of `Cn1c(=O)c2c(CC(=O)Nc3nc(-c4ccc(C(F)(F)F)c(F)c4F)cs3)cccc2n(C)c1=O` [Example 65, N1-[4-(2,3-Difluoro-4-trifluormethylphenyl)-1,3-thiazol-2-yl]-2-(1,3-dimethyl-2,4-dioxo-1,2,3,4-tetrahydro-5-quinazolinyl)acetamide], the inhibition at 1 µM is 99.4%, the inhibition at 10 µM was 99.6% and the IC50 was < 50 nM.

Take `Cn1c(=O)c2c(CC(=O)Nc3nc(-c4cc(F)c(C(F)(F)F)c(F)c4)cs3)cccc2n(C)c1=O` [Example 66, N1-{4-[3,5-Difluoro-4-trifluoromethylphenyl]-1,3-thiazol-2-yl}-2-(1,3-dimethyl-2,4-dioxo-1,2,3,4-tetrahydro-5-quinazolinyl)acetamide]: the inhibition at 1 µM was 100%, the inhibition at 10 µM was 100% and the 50% inhibitory concentration (IC50) is < 50 nM.
